Starred links: 1 amine or outer side, 2 acyl side, 3 side chain; linkers in the order of their positions; H or OH if unused. Positions of bridges follow the written chain, without caps; N, C: chain ends. Non-standard residues stand in square brackets, D forms with d. Residues, ends and D or L forms follow the SMILES beside them. ξ: configuration not given here. *: point of attachment. Arg(Nω,Nω'-propylene) = N[C@@H](CCCNC1=NCCCN1)C(=O)O; dαMeDab = C[C@](CCN[*:3])(N[*:1])C(=O)[*:2]; Arg(Me2a) = CN(C)C(=N)NCCC[C@H](N)C(=O)O; Arg(Me2s) = CN=C(NC)NCCC[C@H](N)C(=O)O; dPhe(3-F) = N[C@H](Cc1cccc(F)c1)C(=O)O; Arg(Et) = CCNC(=N)NCCC[C@H](N)C(=O)O; dPhe(2-F) = N[C@H](Cc1ccccc1F)C(=O)O; Cit = NC(=O)NCCC[C@H](N)C(=O)O; dCha = N[C@H](CC1CCCCC1)C(=O)O; dChg = N[C@@H](C(=O)O)C1CCCCC1; dPhg = N[C@@H](C(=O)O)c1ccccc1; Pyridin(2-yl) = c1ccc(*)nc1; 2Pyrimidinyl = c1cnc(*)nc1; Isobutyryl = CC(C)C(=O)*; Orn = NCCC[C@H](N)C(=O)O; Ac5c = NC1(C(=O)O)CCCC1; Abu = CC[C@H](N)C(=O)O; Dap = NC[C@H](N)C(=O)O; Acryloyl = C=CC(=O)*; ξDab = NCCC(N)C(=O)O
What follows are compounds tested on MOLM-13 leukemia cells carrying MLL-AF9 fusion (assay: cell viability assay (WST-8), MOLM-13). Conditions: Homo sapiens, MOLM-13, 96 h, read-out: MOLM-13 IC50 (μM).
Assay type: cell-based

Row | Structure (SMILES) | IC50 [µM]
1 | CC[C@@H]1NC(=O)C(CCNc2ccccn2)NC(=O)[C@](C)(NC(=O)C(C)C)CCNC(=O)[C@@H](c2ccccc2)NC1=O (stereo partly drawn) [Cpd. No. 11, N-((3R,6S,12R)-6-ethyl-12-methyl-2,5,8,11-tetraoxo-3-phenyl-9-(2-(pyridin-2-ylamino)ethyl)-1,4,7,10-tetraazacyclotetradecan-12-yl)isobutyramide] (Isobutyryl-[dαMeDab][ξDab](Pyridin(2-yl))[Abu][dPhg]; lactam 1-C) | > 10
2 | CC[C@@H]1NC(=O)[C@H](CCCN/C(=N/C)NC)NC(=O)[C@](C)(NC(=O)C(C)C)CCNC(=O)[C@@H](CC2CCCCC2)NC1=O [Cpd. No. 31, N-((3R,6S,9S,12R)-3-(cyclohexylmethyl)-9-(3-((E)-2,3-dimethylguanidino)propyl)-6-ethyl-12-methyl-2,5,8,11-tetraoxo-1,4,7,10-tetraazacyclotetradecan-12-yl)isobutyramide] (Isobutyryl-[dαMeDab][Arg(Me2s)][Abu][dCha]; lactam 1-C) | > 10
3 | CCNC(=N)NCCC[C@@H]1NC(=O)[C@](C)(NC(=O)C(C)C)CCNC(=O)[C@@H](CC2CCCCC2)NC(=O)[C@H](CC)NC1=O [Cpd. No. 45, N-((3R,6S,9S,12R)-3-(cyclohexylmethyl)-6-ethyl-9-(3-(3-ethylguanidino)propyl)-12-methyl-2,5,8,11-tetraoxo-1,4,7,10-tetraazacyclotetradecan-12-yl)isobutyramide] (Isobutyryl-[dαMeDab][Arg(Et)][Abu][dCha]; lactam 1-C) | 3.4
4 | CC[C@@H]1NC(=O)[C@H](CCCNC(=N)N(C)C)NC(=O)[C@](C)(NC(=O)C(C)C)CCNC(=O)[C@@H](CC2CCCCC2)NC1=O [Cpd. No. 36, N-((3R,6S,9S,12R)-3-(cyclohexylmethyl)-9-(3-(3,3-dimethylguanidino)propyl)-6-ethyl-12-methyl-2,5,8,11-tetraoxo-1,4,7,10-tetraazacyclotetradecan-12-yl)isobutyramide] (Isobutyryl-[dαMeDab][Arg(Me2a)][Abu][dCha]; lactam 1-C) | > 10
5 | CC[C@@H]1NC(=O)[C@H](CCCNC(=N)N)NC(=O)[C@](C)(NC(=O)C(C)C)CCNC(=O)[C@@H](Cc2ccccc2F)NC1=O [Cpd. No. 55, N-((3R,6S,9S,12R)-6-ethyl-3-(2-fluorobenzyl)-9-(3-guanidinopropyl)-12-methyl-2,5,8,11-tetraoxo-1,4,7,10-tetraazacyclotetradecan-12-yl)isobutyramide] (Isobutyryl-[dαMeDab]R[Abu][dPhe(2-F)]; lactam 1-C) | 3.59
6 | CC[C@@H]1NC(=O)[C@H](CCCNC(N)=O)NC(=O)[C@](C)(NC(=O)C(C)C)CCNC(=O)[C@@H](c2ccccc2)NC1=O [Cpd. No. 16, N-((3R,6S,9S,12R)-6-ethyl-12-methyl-2,5,8,11-tetraoxo-3-phenyl-9-(3-ureidopropyl)-1,4,7,10-tetraazacyclotetradecan-12-yl)isobutyramide] (Isobutyryl-[dαMeDab][Cit][Abu][dPhg]; lactam 1-C) | > 10
7 | CC[C@@H]1NC(=O)[C@H](CCCNC2=NCC(F)(F)CN2)NC(=O)[C@](C)(NC(=O)C(C)C)CCNC(=O)[C@@H](CC2CCCCC2)NC1=O [Cpd. No. 95, N-((3R,6S,9S,12R)-3-(cyclohexylmethyl)-9-(3-((5,5-difluoro-1,4,5,6-tetrahydropyrimidin-2-yl)amino)propyl)-6-ethyl-12-methyl-2,5,8,11-tetraoxo-1,4,7,10-tetraazacyclotetradecan-12-yl)isobutyramide] | > 10
8 | CC[C@@H]1NC(=O)[C@H](CCCNc2ncccn2)NC(=O)[C@](C)(NC(=O)C(C)C)CCNC(=O)[C@@H](c2ccccc2)NC1=O [Cpd. No. 21, N-((3R,6S,12R)-6-ethyl-12-methyl-2,5,8,11-tetraoxo-3-phenyl-9-(3-(pyrimidin-2-ylamino)propyl)-1,4,7,10-tetraazacyclotetradecan-12-yl)isobutyramide] (Isobutyryl-[dαMeDab][Orn](2Pyrimidinyl)[Abu][dPhg]; lactam 1-C) | > 10
9 | CC[C@@H]1NC(=O)[C@H](CNc2ccccn2)NC(=O)[C@](C)(NC(=O)C(C)C)CCNC(=O)[C@@H](c2ccccc2)NC1=O [Cpd. No. 10, N-((3R,6S,9S,12R)-6-ethyl-12-methyl-2,5,8,11-tetraoxo-3-phenyl-9-((pyridin-2-ylamino)methyl)-1,4,7,10-tetraazacyclotetradecan-12-yl)isobutyramide] (Isobutyryl-[dαMeDab][Dap](Pyridin(2-yl))[Abu][dPhg]; lactam 1-C) | > 10
10 | CCCCNC(=N)NCCC[C@@H]1NC(=O)[C@](C)(NC(=O)C(C)C)CCNC(=O)[C@@H](CC2CCCCC2)NC(=O)[C@H](CC)NC1=O [Cpd. No. 47, N-((3R,6S,9S,12R)-9-(3-(3-butylguanidino)propyl)-3-(cyclohexylmethyl)-6-ethyl-12-methyl-2,5,8,11-tetraoxo-1,4,7,10-tetraazacyclotetradecan-12-yl)isobutyramide] | > 10
11 | CC[C@@H]1NC(=O)[C@H](CCC(N)=O)NC(=O)[C@](C)(NC(=O)C(C)C)CCNC(=O)[C@@H](c2ccccc2)NC1=O [Cpd. No. 15, N-((3R,6S,12R)-9-(3-amino-3-oxopropyl)-6-ethyl-12-methyl-2,5,8,11-tetraoxo-3-phenyl-1,4,7,10-tetraazacyclotetradecan-12-yl)isobutyramide] (Isobutyryl-[dαMeDab]Q[Abu][dPhg]; lactam 1-C) | > 10
12 | CC[C@@H]1NC(=O)[C@H](CCCNC2=NCC(C)(C)CN2)NC(=O)[C@](C)(NC(=O)C(C)C)CCNC(=O)[C@@H](CC2CCCCC2)NC1=O [Cpd. No. 96, N-((3R,6S,9S,12R)-3-(cyclohexylmethyl)-9-(3-((5,5-dimethyl-1,4,5,6-tetrahydxopyrimidin-2-yl)amino)propyl)-6-ethyl-12-methyl-2,5,8,11-tetraoxo-1,4,7,10-tetraazacyclotetradecan-12-yl)isobutyramide] | > 10
13 | CC[C@@H]1NC(=O)[C@H](CCNC2CCN(C)CC2)NC(=O)[C@](C)(NC(=O)C(C)C)CCNC(=O)[C@@H](c2ccccc2)NC1=O [Cpd. No. 8, N-((3R,6S,9S,12R)-6-ethyl-12-methyl-9-(2-((1-methylpiperidin-4-yl)amino)ethyl)-2,5,8,11-tetraoxo-3-phenyl-1,4,7,10-tetraazacyclotetradecan-12-yl)isobutyramide] | > 10
14 | CC[C@@H]1NC(=O)[C@H](CCNC2=NCCN2)NC(=O)[C@](C)(NC(=O)C(C)C)CCNC(=O)[C@@H](c2ccccc2)NC1=O [Cpd. No. 18, N-((3R,6S,9S,12R)-9-(2-((4,5-dihydro-1H-imidazol-2-yl)amino)ethyl)-6-ethyl-12-methyl-2,5,8,11-tetraoxo-3-phenyl-1,4,7,10-tetraazacyclotetradecan-12-yl)isobutyramide] | > 10
15 | CC[C@@H]1NC(=O)[C@H](CCCNC(=N)N)NC(=O)[C@](C)(NC(=O)C(C)C)CCNC(=O)[C@@H](Cc2cccc(F)c2)NC1=O [Cpd. No. 56, N-((3R,6S,9S,12R)-6-ethyl-3-(3-fluorobenzyl)-9-(3-guanidinopropyl)-12-methyl-2,5,8,11-tetraoxo-1,4,7,10-tetraazacyclotetradecan-12-yl)isobutyramide] (Isobutyryl-[dαMeDab]R[Abu][dPhe(3-F)]; lactam 1-C) | 1.29
16 | CC[C@@H]1NC(=O)[C@H](CCCNC2=NCCCN2)NC(=O)[C@](C)(NC(=O)C(C)C)CCNC(=O)[C@@H](CC2CCCCC2)NC1=O [Cpd. No. 40, N-((3R,6S,9S,12R)-3-(cyclohexylmethyl)-6-ethyl-12-methyl-2,5,8,11-tetraoxo-9-(3-((1,4,5,6-tetrahydropyrimidin-2-yl)amino)propyl)-1,4,7,10-tetraazacyclotetradecan-12-yl)isobutyramide] (Isobutyryl-[dαMeDab][Arg(Nω,Nω'-propylene)][Abu][dCha]; lactam 1-C) | 0.88
17 | CC(C)C(=O)N[C@]1(C)CCNC(=O)[C@@H](c2ccccc2)NC(=O)C2(CCCC2)NC(=O)[C@H](CCCNC(=N)N)NC1=O [Cpd. No. 86, N-((8S,11R,16R)-8-(3-guanidinopropyl)-11-methyl-7,10,15,18-tetraoxo-16-phenyl-6,9,14,17-tetraazaspiro[4.13]octadecan-11-yl)isobutyramide] (Isobutyryl-[dαMeDab]R[Ac5c][dPhg]; lactam 1-C) | > 10
18 | CC[C@@H]1NC(=O)[C@H](CCCNC(=N)N)NC(=O)[C@](C)(NC(=O)C(C)C)CCNC(=O)[C@@H](C2CCCCC2)NC1=O [Cpd. No. 51, N-((3R,6S,9S,12R)-3-cyclohexyl-6-ethyl-9-(3-guanidinopropyl)-12-methyl-2,5,8,11-tetraoxo-1,4,7,10-tetraazacyclotetradecan-12-yl)isobutyramide] (Isobutyryl-[dαMeDab]R[Abu][dChg]; lactam 1-C) | 0.64

Same assay, conditions: Homo sapiens, MOLM-13, 96 h; Table 2A; 4 days treatment; read-out: MOLM-13 IC50

Row | Structure (SMILES) | IC50 [µM]
19 | CC[C@H](C)[C@@H]1NC(=O)[C@H](CCCNC(=N)N)NC(=O)[C@](C)(NC(=O)C(C)C)CCNC(=O)[C@@H](c2ccccc2)NC1=O [Cpd. No. 90, N-((3R,6S,9S,12R)-6-((S)-sec-butyl)-9-(3-guanidinopropyl)-12-methyl-2,5,8,11-tetraoxo-3-phenyl-1,4,7,10-tetraazacyclotetradecan-12-yl)isobutyramide] (Isobutyryl-[dαMeDab]RI[dPhg]; lactam 1-C) | > 10
20 | CC[C@@H]1NC(=O)[C@H](CCCNC(=N)N)NC(=O)[C@](C)(NC(=O)C(C)C)CCNC(=O)[C@@H](Cc2ccccc2)NC1=O [Cpd. No. 54, N-((3R,6S,9S,12R)-3-benzyl-6-ethyl-9-(3-guanidinopropyl)-12-methyl-2,5,8,11-tetraoxo-1,4,7,10-tetraazacyclotetradecan-12-yl)isobutyramide] (Isobutyryl-[dαMeDab]R[Abu][dF]; lactam 1-C) | 1.57
21 | C=CC(=O)NCCCC[C@@H]1NC(=O)[C@](C)(NC(=O)C(C)C)CCNC(=O)[C@@H](c2ccccc2)NC(=O)[C@H](CC)NC1=O [Cpd. No. 24, N-(4-((2S,5S,8R,13R)-5-ethyl-13-isobutyramido-13-methyl-3,6,9,14-tetraoxo-8-phenyl-1,4,7,10-tetraazacyclotetradecan-2-yl)butyl)acrylamide] (Isobutyryl-[dαMeDab]K(Acryloyl)[Abu][dPhg]; lactam 1-C) | > 10

Source: patent US20210130401A1, “PEPTIDOMIMETIC INHIBITORS OF THE WDR5-MLL INTERACTION” (THE REGENTS OF THE UNIVERSITY OF MICHIGAN, priority 2017, published 2021)
